Like-named read-outs stand apart in the source and are kept apart here.

Assay [1] has as its system wheat leaf rust, Puccinia recondita. The assay is described as follows: whole plant or invertebrate. The format is in vivo. To be noted: foliar; for pest or weed control at 280.212 g/ha: read-out: % Control (without rain), foliar, 0.25 lb.; for pest or weed control at 1120.85 g/ha: read-out: % Control (without rain), foliar, 1 lb.
Assay [2] shares this test system. Kind of assay: whole plant or invertebrate. The format is in vivo. To be noted: foliar; for pest or weed control at 280.212 g/ha: read-out: % Control (with 1" of rain), foliar, 0.25 lb., 1" of rain; for pest or weed control at 1120.85 g/ha: read-out: % Control (with 1" of rain), foliar, 1 lb., 1" of rain.

For the compound `CCCCSc1nncn1CCCC` [Example 103, 3-n-butylmercapto-4-n-butyl-1,2,4-triazole], the pest or weed control at 280.212 g/ha in assay [1] and in assay [2] was 50% each time. Also, the pest or weed control at 1120.85 g/ha came out at 90% in assay [1] and 80% in assay [2].
Consider `O=C(O)CCn1cnnc1` [Example 41, 4-(2-carboxyethyl)-1,2,4-triazole], for which, in assay [1], the pest or weed control at 280.212 g/ha was found to be 85% and the pest or weed control at 1120.85 g/ha was 90%. In assay [2], the pest or weed control at 280.212 g/ha is 0% and the pest or weed control at 1120.85 g/ha was 0%.
For `Oc1nnc(S)n1-c1ccccc1` [Example 88, 3-mercapto-4-phenyl-5-hydroxy-1,2,4-triazole], in assay [1], the pest or weed control at 280.212 g/ha was 73% and the pest or weed control at 1120.85 g/ha was 80%. Also, in assay [2], the pest or weed control at 280.212 g/ha stood at 98% and the pest or weed control at 1120.85 g/ha came out at 100%.
On to `CCC(C)n1cnnc1` (stereo not drawn) [Example 5, 4-sec-butyl-1,2,4-triazole], for which, in assay [1], the pest or weed control at 280.212 g/ha was 97% and the pest or weed control at 1120.85 g/ha is 99%. In assay [2], the pest or weed control at 280.212 g/ha was 78% and the pest or weed control at 1120.85 g/ha amounted to 69%.
Regarding `CCCCn1cnnc1SC(=O)c1ccc(Br)cc1` [Example 119, 3-(4-bromobenzoylmercapto)-4-n-butyl-1,2,4-triazole], in assay [1], the pest or weed control at 280.212 g/ha was 100% and the pest or weed control at 1120.85 g/ha worked out at 100%. In assay [2], the pest or weed control at 280.212 g/ha was 100% and the pest or weed control at 1120.85 g/ha was determined as 100%.
On to `O=[N+]([O-])c1ccc(-n2cnnc2)cc1` [Example 59, 4-(4-nitrophenyl)-1,2,4-triazole], for which, in assay [1], the pest or weed control at 280.212 g/ha amounted to 97% and the pest or weed control at 1120.85 g/ha came to 98%. In assay [2], the pest or weed control at 280.212 g/ha came out at 58% and the pest or weed control at 1120.85 g/ha is 79%.
The corresponding values for `CC(C)(C)n1cnnc1` [Example 6, 4-t-butyl-1,2,4-triazole] are 100%, 100%, 95% and 95%.
Turning to `COc1ccc(Cn2cnnc2)cc1` [Example 50, 4-(4-methoxybenzyl)-1,2,4-triazole], the pest or weed control at 280.212 g/ha in assay [1] worked out at 100%. The pest or weed control at 1120.85 g/ha in assay [2] came out at 100%.
Take `Clc1cccc2sc(-n3cnnc3)nc12` [Example 70]: in assay [1], the pest or weed control at 280.212 g/ha worked out at 100% and the pest or weed control at 1120.85 g/ha amounted to 100%. In assay [2], the pest or weed control at 280.212 g/ha amounted to 100%.
`c1nc(CCn2cnnc2)c[nH]1` [Example 36, 4-[2-(4-imidazolyl)]-1,2,4-triazole]: in assay [1], the pest or weed control at 280.212 g/ha is 0% and the pest or weed control at 1120.85 g/ha was determined as 10%. Moreover, in assay [2], the pest or weed control at 280.212 g/ha amounted to 0% and the pest or weed control at 1120.85 g/ha came to 10%.
As for `Sc1nncn1C1CCCCC1` [Example 83, 3-mercapto-4-cyclohexyl-1,2,4-triazole], in assay [1], the pest or weed control at 280.212 g/ha worked out at 44% and the pest or weed control at 1120.85 g/ha was 34%. Further, in assay [2], the pest or weed control at 280.212 g/ha is 100% and the pest or weed control at 1120.85 g/ha was found to be 98%.
Taken in the same sequence, the figures for `c1ccc2[nH]c(-n3cnnc3)nc2c1` [Example 71, 4-(2-benzimidazolyl)-1,2,4-triazole] were 10%, 20%, 0% and 0%.
Turning to `Clc1ccc(Cn2cnnc2)cc1Cl` [Example 53, 4-(3,4-dichloroenzyl)-1,2,4-triazole], the pest or weed control at 280.212 g/ha stood at 60% in assay [1] and 10% in assay [2]. For the same compound, the pest or weed control at 1120.85 g/ha in assay [1] stood at 70%; in assay [2], 30%.
The corresponding values for `CCCCCCCCCCn1cnnc1S` [Example 82, 3-mercapto-4-n-decyl-1,2,4-triazole] are 61%, 46%, 78% and 72%.
On to `Sc1nncn1-c1ccccc1` [Example 85, 3-mercapto-4-phenyl-1,2,4-triazole], for which the pest or weed control at 280.212 g/ha in assay [1] is 80%; in assay [2], 72%. Moreover, the pest or weed control at 1120.85 g/ha in assay [1] was 85%; in assay [2] it was 90%.
In the case of `CCCCn1c(O)nnc1S` [Example 87, 3-mercapto-4-n-butyl-5-hydroxy-1,2,4-triazole], in assay [1], the pest or weed control at 280.212 g/ha amounted to 15% and the pest or weed control at 1120.85 g/ha is 49%. In assay [2], the pest or weed control at 280.212 g/ha amounted to 0% and the pest or weed control at 1120.85 g/ha came out at 0%.
With `O=[N+]([O-])c1cccc(-n2cnnc2)c1` [Example 58, 4-(3-nitrophenyl)-1,2,4-triazole], in assay [1], the pest or weed control at 280.212 g/ha was found to be 80% and the pest or weed control at 1120.85 g/ha was found to be 80%. Besides, in assay [2], the pest or weed control at 280.212 g/ha came to 0% and the pest or weed control at 1120.85 g/ha worked out at 0%.
In the case of `C#CCn1cnnc1` [Example 15, 4-propargyl-1,2,4-triazole], in assay [1], the pest or weed control at 280.212 g/ha was determined as 100% and the pest or weed control at 1120.85 g/ha turned out to be 100%. In assay [2], the pest or weed control at 280.212 g/ha was found to be 99% and the pest or weed control at 1120.85 g/ha turned out to be 100%.
In the case of `CCC(O)Cn1cnnc1` (stereo not drawn) [Example 19, 4-(2-hydroxybutyl)-1,2,4-triazole], the pest or weed control at 280.212 g/ha was determined as 65% in assay [1] and 0% in assay [2]. For the same compound, the figures for the pest or weed control at 1120.85 g/ha in assay [1] and in assay [2] were 65% and 0%, respectively.
For the compound `CCCCCCCCCCSc1nncn1CCCC` [Example 104, 3-n-decylmercapto-4-butyl-1,2,4-triazole], in assay [1], the pest or weed control at 280.212 g/ha came to 80% and the pest or weed control at 1120.85 g/ha is 98%. Further, in assay [2], the pest or weed control at 280.212 g/ha was determined as 45% and the pest or weed control at 1120.85 g/ha came out at 98%.
For the compound `CCCCn1cnnc1SC(C)=O` [Example 115, 3-acetylmercapto-4-n-butyl-1,2,4-triazole], in assay [1], the pest or weed control at 280.212 g/ha was 99% and the pest or weed control at 1120.85 g/ha turned out to be 100%. In assay [2], the pest or weed control at 280.212 g/ha came out at 90% and the pest or weed control at 1120.85 g/ha amounted to 95%.
As for `O=C(O)CCCn1cnnc1` [Example 44, 4-(3-carboxypropyl)-1,2,4-triazole], in assay [1], the pest or weed control at 280.212 g/ha stood at 20% and the pest or weed control at 1120.85 g/ha came to 75%. Further, in assay [2], the pest or weed control at 280.212 g/ha worked out at 35% and the pest or weed control at 1120.85 g/ha was 5%.
Take `CC(C)OCCCn1cnnc1` [Example 48, 4-(3-isopropoxypropyl)-1,2,4-triazole]: in assay [1], the pest or weed control at 280.212 g/ha was 0% and the pest or weed control at 1120.85 g/ha is 0%. Further, in assay [2], the pest or weed control at 280.212 g/ha was found to be 0% and the pest or weed control at 1120.85 g/ha is 0%.
Consider `Sc1nnc(-c2ccco2)n1-c1ccccc1` [Example 92, 3-mercapto-4-phenyl-5-(2-furyl)-1,2,4-triazole], for which the pest or weed control at 280.212 g/ha in assay [1] and in assay [2] was 100% throughout. The pest or weed control at 1120.85 g/ha worked out at 81% in assay [1] and 87% in assay [2].

The values are drawn from US4120864A, “1,2,4-4H-triazole derivatives” (Rohm and Haas Company, priority 1972, dated 1978).
